The text below walks through data of patent US20250127806A1, “INJECTABLE LIQUID PHARMACEUTICAL COMPOSITION CONTAINING GEMCITABINE AND A CYTIDINE DEAMINASE INHIBITOR” (ST. JOHN'S UNIVERSITY, priority 2021, published 2025).

≈ marks a conversion by molar mass, not a printed value.

Data set [1] concerns MIAPACA-2 xenograft tumors. Type of data set: in vivo. The note with it: s.c. depot every 3rd day, four doses, Gem 10 mg/kg, Zeb 76 mg/kg. Here is the method:
All experiments were done in accordance with the guidelines of the Institutional Animal Care and Use Committee (IACUC) at St John's university. MiaPaca-2 pancreatic cancer cells were maintained in DMEM medium supplemented with 100 U/mL penicillin, 1% streptomycin, 10% fetal bovine serum (FBS), in a humidified 5% CO2 atmosphere at 37° C. After acclimation for 7 days, mice were subcutaneously (s.c.) injected in the right flank with Matrigel (BD Biosciences, San Jose, CA, USA) containing 1.5×10^6 MiaPaca-2 cells. The mice were monitored closely for tumor growth by palpation and visual examination. Palpable and measurable tumors were found beginning 5-7 days after cells were injected. Tumor volume was calculated using the equation: tumor volume=(length×width×height)/2. Once the tumors reached a size of 80-120 mm^3 mice were randomly divided into 4 groups to receive s.c. injection (N=6 in each group) of respective in situ depot formulation.
Total four doses of each formulation were given. A syringe with 27G needle was used to administer 10 ul of depot formulation. Post administration, the syringe was left in the same position for 30 sec in order to obviate the sudden leakage of formulation and to facilitate the gelling of entire volumes of formulations at 37° C. Measurements of tumor size and body weight was taken every alternate day using digital calipers. […]

Data set [2] can be described thus: Saturation solubility of Gemcitabine free base in various solvents. Type of data set: physicochemical. As to conditions: for solubility: thermodynamic from solid. From the text: In order to select a biocompatible solvent for the development of in situ depot, we carried out saturation solubility of Gemcitabine free base in 12 different organic solvent which are safe to be used for subcutaneous administration in mice. […] However, since NMP is already used in marketed in situ depot formulations and is FDA approved, we used it as a biocompatible solvent to prepare the various polymeric solutions.

On to `Nc1ccn([C@@H]2O[C@H](CO)[C@@H](O)C2(F)F)c(=O)n1` [Gemcitabine free base, Gemcitabine], for which the “Antitumor efficacy (tumor volume)” value in data set [1] (FIG. 3(a)) is recorded as “decreased the tumor volume”. Moreover, the Median survival entry in data set [1] (FIG. 3(c)) is listed as “around 18 days”. Moreover, the solubility in data set [2] (N,N-dimethylacetamide (DMA), organic solvent or mixture, saturation solubility in N,N Dimethylacetamide (DMA)) was roughly 616 mg/mL (≈ 2340 mM); in data set [2] (N-methyl pyrrolidone (NMP), organic solvent or mixture, saturation solubility in N-methyl pyrrolidone (NMP)), roughly 470 mg/mL (≈ 1790 mM); in data set [2] (diglyme, organic solvent or mixture, saturation solubility in Diglyme), 3.81 ± 0.63 mg/mL (≈ 14.5 mM); in data set [2] (ethyl lactate, organic solvent or mixture, saturation solubility in Ethyl lactate), 18.4 ± 0.34 mg/mL (≈ 69.7 mM); in data set [2] (glycerol formal, organic solvent or mixture, saturation solubility in Glycerol formal), 104 ± 2.03 mg/mL (≈ 397 mM); in data set [2] (isosorbide dimethyl ether, organic solvent or mixture, saturation solubility in Isosorbide dimethyl ether), 8.39 ± 0.4 mg/mL (≈ 31.9 mM). Besides, the solubility stood at 185 ± 13.3 mg/mL (≈ 703 mM) in data set [2] (polyethylene glycol 300, organic solvent or mixture, saturation solubility in Polyethylene glycol 300); 151 ± 2.89 mg/mL (≈ 572 mM) in data set [2] (polyethylene glycol 400, organic solvent or mixture, saturation solubility in Polyethylene glycol 400); 160 ± 8.29 mg/mL (≈ 609 mM) in data set [2] (propylene glycol, organic solvent or mixture, saturation solubility in Propylene glycol); 17.73 ± 0.008 mg/mL (≈ 67.4 mM) in data set [2] (solketal, organic solvent or mixture, saturation solubility in Solketal); 129 ± 1.49 mg/mL (≈ 492 mM) in data set [2] (tetraglycol/glycofurol, organic solvent or mixture, saturation solubility in Tetraglycol/Glycofurol); 221 ± 4.97 mg/mL (≈ 841 mM) in data set [2] (tetrahydrofurfuryl alcohol, organic solvent or mixture, saturation solubility in Tetrahydrofurfuryl alcohol). Further, in data set [2] (water, saturation solubility in Water), the concentration in solution (solubility) was 21.8 ± 1.44 mg/mL (≈ 82.9 mM). In addition, the “Solubility of Gemcitabine free base” value in data set [2] (saturation solubility in N-methyl pyrrolidone (NMP)) turned out to be 470.70 ± 3.56 mg/mL.

The term solubility denotes the dissolved amount per volume that the medium holds.
